Source: article PMC5668067, “Phase I dose-escalation study of the c-Met tyrosine kinase inhibitor SAR125844 in Asian patients with advanced solid tumors, including patients with MET-amplified gastric cancer” (Oncotarget, 2017)
“Also recorded” adds a separate entry of the source.

What was measured:
[1] = tested on: Asian patients with solid tumors; test: phase I dose escalation: dose-limiting toxicities, MTD and recommended dose; format: in vivo
Method: This was an open-label, phase I, multicenter study consisting of a dose-escalation phase (to determine the MTD of SAR) and a dose-expansion phase (to evaluate the antitumor activity of SAR at the RD in patients with MET-amplified tumors, including gastric cancer).
The model was run based on DLTs occurring during the first cycle of treatment.
(§1) SAR was administered by weekly intravenous infusion on days 1, 8, 15, and 22 of each 28–day cycle. The starting dose was 260 mg/m^2, and dose increments of 30% were made, to a maximum of 570 mg/m^2. Treatment continued until disease progression, unacceptable toxicity, or consent withdrawal. Patients were screened within 21 days before the first administration and followed for 30 days after the last administration.
A DLT was defined as grade 4 neutropenia for ≥ 7 consecutive days, febrile neutropenia, grade 4 thrombocytopenia or grade 3 thrombocytopenia with bleeding requiring a transfusion, any grade ≥ 3 nonhematologic event not easily managed or corrected by medical intervention, or SAR-related toxicity resulting in two or more missed doses.
(§2) The safety population consisted of all patients exposed to SAR, regardless of the amount of treatment administered.

[2] = tested on: Asian patients with solid tumors; test: phase I safety: treatment-emergent adverse events (NCI CTCAE v4.03), safety population; format: in vivo
Method: as §1, §2

[3] = tested on: xenograft models of MET-amplified human gastric tumors; set-up: method as in PMID 25504634; settings: cited from earlier work
[4] = dose-escalation cohort, 260 mg/m^2 (N = 6)
[5] = dose-escalation cohort, 340 mg/m^2 (N = 4)
[6] = dose-escalation cohort, 440 mg/m^2 (N = 3)
[7] = dose-escalation cohort, 570 mg/m^2 (N = 6)
[8] = dose-expansion cohort, All (N = 19)
[9] = dose-expansion cohort, GC (N = 14)
[10] = two xenograft models, intravenous single-agent

SMILES: O=C(NCCN1CCOCC1)Nc1nc2ccc(Sc3nnc4ccc(-c5ccc(F)cc5)nn34)cc2s1 [SAR125844]
- recommended dose (RD) ([1]; Asian patients, weekly i.v. infusion): 570 mg/m^2
- maximum tolerated dose (MTD) ([1]; dose-escalation cohort, 260–570 mg/m^2 weekly i.v.): not reached
- dose-limiting toxicities (DLTs) ([1]; dose-escalation phase, listed as SAR): No dose-limiting toxicities; also recorded: No DLTs
- patients with a DLT ([1]; expansion cohort, 570 mg/m^2, of 19 patients, cycle 1, transaminase and creatinine increases): one
- patients who discontinued treatment because of a TEAE ([2]; TEAE considered unrelated to the study drug): One
- TEAE Abdominal pains ([2]; Total (N = 38)): 8 (21.1) n (%)
- TEAE Back pain ([2]; Total (N = 38)): 5 (13.2) n (%)
- TEAE Cancer pain ([2]; Total (N = 38)): 4 (10.5) n (%)
- TEAE Constipation ([2]; Total (N = 38)): 8 (21.1) n (%)
- TEAE Cough ([2]; Total (N = 38)): 4 (10.5) n (%)
- TEAE Decreased appetite ([2]; Total (N = 38)): 11 (28.9) n (%)
- TEAE Diarrhea ([2]; Total (N = 38)): 5 (13.2) n (%)
- TEAE Edema, peripheral ([2]; Total (N = 38)): 4 (10.5) n (%)
- TEAE Fatigue/asthenia ([2]; Total (N = 38)): 8 (21.1) n (%)
- TEAE Injection site reaction/phlebitis ([2]; Total (N = 38)): 7 (18.4) n (%)
- TEAE Insomnia ([2]; Total (N = 38)): 4 (10.5) n (%)
- TEAE Nausea ([2]; Total (N = 38)): 14 (36.8) n (%)
- TEAE Pyrexia ([2]; Total (N = 38)): 7 (18.4) n (%)
- TEAE Rash ([2]; Total (N = 38)): 4 (10.5) n (%)
- TEAE Vomiting ([2]; Total (N = 38)): 13 (34.2) n (%)
- deaths due to adverse events ([2]; all patients (N = 38)): no deaths
- frequency of abdominal pains ([2]; all patients (N = 38)): 21.1%
- frequency of constipation ([2]; all patients (N = 38)): 21.1%
- frequency of decreased appetite ([2]; all patients (N = 38)): 28.9%
- frequency of fatigue or asthenia ([2]; all patients (N = 38)): 21.1%
- frequency of nausea ([2]; all patients (N = 38)): 36.8%
- frequency of vomiting ([2]; all patients (N = 38)): 34.2%
- patients with at least one dose modification ([2]; all patients (N = 38)): Nine
- patients with drug-related Grade ≥ 3 AEs ([2]; all patients (N = 38)): 7.9%
- patients with infusion interrupted because of a grade 2 infusion-related reaction ([2]; all patients (N = 38)): one
- patients with study-drug related Grade ≥ 3 TEAEs ([2]; all patients (N = 38)): three
- serious TEAEs considered study-drug related ([2]; all patients (N = 38)): none
- patients with Grade ≥ 3 TEAEs ([2]; all patients (N = 38), 15 patients): 39.5%
- patients with study-drug related TEAEs ([2]; all patients (N = 38), 22 patients): 57.9%
- patients with TEAEs ([2]; all patients (N = 38), 36 patients): 94.7%
- patients with serious TEAEs ([2]; all patients (N = 38), eight patients): 21.1%
- TEAE Abdominal pains [2, 4]: 1 (16.7) n (%)
- TEAE Back pain [2, 4]: 3 (50.0) n (%)
- TEAE Cancer pain [2, 4]: 0 (0) n (%)
- TEAE Constipation [2, 4]: 2 (33.3) n (%)
- TEAE Cough [2, 4]: 2 (33.3) n (%)
- TEAE Decreased appetite [2, 4]: 1 (16.7) n (%)
- TEAE Diarrhea [2, 4]: 0 (0) n (%)
- TEAE Edema, peripheral [2, 4]: 0 (0) n (%)
- TEAE Fatigue/asthenia [2, 4]: 3 (50) n (%)
- TEAE Injection site reaction/phlebitis [2, 4]: 1 (16.7) n (%)
- TEAE Insomnia [2, 4]: 1 (16.7) n (%)
- TEAE Nausea [2, 4]: 1 (16.7) n (%)
- TEAE Pyrexia [2, 4]: 4 (66.7) n (%)
- TEAE Rash [2, 4]: 2 (33.3) n (%)
- TEAE Vomiting [2, 4]: 1 (16.7) n (%)
- TEAE Abdominal pains [2, 5]: 0 (0) n (%)
- TEAE Back pain [2, 5]: 0 (0) n (%)
- TEAE Cancer pain [2, 5]: 0 (0) n (%)
- TEAE Constipation [2, 5]: 0 (0) n (%)
- TEAE Cough [2, 5]: 1 (25.0) n (%)
- TEAE Decreased appetite [2, 5]: 1 (25.0) n (%)
- TEAE Diarrhea [2, 5]: 0 (0) n (%)
- TEAE Edema, peripheral [2, 5]: 0 (0) n (%)
- TEAE Fatigue/asthenia [2, 5]: 0 (0) n (%)
- TEAE Injection site reaction/phlebitis [2, 5]: 0 (0) n (%)
- TEAE Insomnia [2, 5]: 0 (0) n (%)
- TEAE Nausea [2, 5]: 2 (50) n (%)
- TEAE Pyrexia [2, 5]: 0 (0) n (%)
- TEAE Rash [2, 5]: 1 (25.0) n (%)
- TEAE Vomiting [2, 5]: 1 (25.0) n (%)
- TEAE Abdominal pains [2, 6]: 1 (33.3) n (%)
- TEAE Back pain [2, 6]: 0 (0) n (%)
- TEAE Cancer pain [2, 6]: 1 (33.3) n (%)
- TEAE Constipation [2, 6]: 1 (33.3) n (%)
- TEAE Cough [2, 6]: 0 (0) n (%)
- TEAE Decreased appetite [2, 6]: 1 (33.3) n (%)
- TEAE Diarrhea [2, 6]: 0 (0) n (%)
- TEAE Edema, peripheral [2, 6]: 0 (0) n (%)
- TEAE Fatigue/asthenia [2, 6]: 1 (33.3) n (%)
- TEAE Injection site reaction/phlebitis [2, 6]: 0 (0) n (%)
- TEAE Insomnia [2, 6]: 0 (0) n (%)
- TEAE Nausea [2, 6]: 0 (0) n (%)
- TEAE Pyrexia [2, 6]: 0 (0) n (%)
- TEAE Rash [2, 6]: 0 (0) n (%)
- TEAE Vomiting [2, 6]: 0 (0) n (%)
- TEAE Abdominal pains [2, 7]: 0 (0) n (%)
- TEAE Back pain [2, 7]: 0 (0) n (%)
- TEAE Cancer pain [2, 7]: 2 (33.3) n (%)
- TEAE Constipation [2, 7]: 1 (16.7) n (%)
- TEAE Cough [2, 7]: 0 (0) n (%)
- TEAE Decreased appetite [2, 7]: 0 (0) n (%)
- TEAE Diarrhea [2, 7]: 0 (0) n (%)
- TEAE Edema, peripheral [2, 7]: 1 (16.7) n (%)
- TEAE Fatigue/asthenia [2, 7]: 0 (0) n (%)
- TEAE Injection site reaction/phlebitis [2, 7]: 1 (16.7) n (%)
- TEAE Insomnia [2, 7]: 0 (0) n (%)
- TEAE Nausea [2, 7]: 3 (50) n (%)
- TEAE Pyrexia [2, 7]: 0 (0) n (%)
- TEAE Rash [2, 7]: 0 (0) n (%)
- TEAE Vomiting [2, 7]: 1 (16.7) n (%)
- TEAE Back pain [2, 8]: 2 (10.5) n (%)
- TEAE Cancer pain [2, 8]: 1 (5.3) n (%)
- TEAE Constipation [2, 8]: 4 (21.1) n (%)
- TEAE Cough [2, 8]: 1 (5.3) n (%)
- TEAE Decreased appetite [2, 8]: 8 (42.1) n (%)
- TEAE Diarrhea [2, 8]: 5 (26.3) n (%)
- TEAE Edema, peripheral [2, 8]: 3 (15.8) n (%)
- TEAE Fatigue/asthenia [2, 8]: 4 (21.1) n (%)
- TEAE Injection site reaction/phlebitis [2, 8]: 5 (26.3) n (%)
- TEAE Insomnia [2, 8]: 3 (15.8) n (%)
- TEAE Nausea [2, 8]: 8 (42.1) n (%)
- TEAE Pyrexia [2, 8]: 3 (15.8) n (%)
- TEAE Rash [2, 8]: 1 (5.3) n (%)
- TEAE Vomiting [2, 8]: 10 (52.6) n (%)
- TEAE Abdominal pains [2, 9]: 2 (14.3) n (%)
- TEAE Back pain [2, 9]: 2 (14.3) n (%)
- TEAE Cancer pain [2, 9]: 1 (7.1) n (%)
- TEAE Constipation [2, 9]: 2 (14.3) n (%)
- TEAE Cough [2, 9]: 1 (7.1) n (%)
- TEAE Decreased appetite [2, 9]: 5 (35.7) n (%)
- TEAE Diarrhea [2, 9]: 4 (28.6) n (%)
- TEAE Edema, peripheral [2, 9]: 2 (14.3) n (%)
- TEAE Fatigue/asthenia [2, 9]: 2 (14.3) n (%)
- TEAE Injection site reaction/phlebitis [2, 9]: 4 (28.6) n (%)
- TEAE Insomnia [2, 9]: 2 (14.3) n (%)
- TEAE Nausea [2, 9]: 4 (28.6) n (%)
- TEAE Pyrexia [2, 9]: 1 (7.1) n (%)
- TEAE Rash [2, 9]: 1 (7.1) n (%)
- TEAE Vomiting [2, 9]: 6 (42.9) n (%)
- cases of transaminase increase (grade ≥ 3) leading to dose modification ([2]; laboratory findings): Two
- toxicity profile ([3]; preclinical): acceptable toxicity profile
- c-Met kinase inhibition in xenograft tumors [3, 10]: c-Met kinase inhibition
- tumor regression [3, 10]: dose-dependent tumor regression
